Results published in the NIST ThermoML archive (doi:10.1016/j.jct.2014.05.020).

Assay: excess molar enthalpy (molar enthalpy of mixing); xn = mol fraction of the nth substance listed
Conditions: Liquid, Flow calorimetry

C1CCCCC1 [cyclohexane] + c1ccccc1
excess molar enthalpy [kcal/mol]
Conditions	298.2 K	348.2 K	423.2 K
100 kPa, x2 = 0.1191	0.0766	–	–
100 kPa, x2 = 0.2332	0.132	–	–
100 kPa, x2 = 0.2885	0.152	–	–
100 kPa, x2 = 0.3426	0.167	–	–
100 kPa, x2 = 0.3957	0.179	–	–
100 kPa, x2 = 0.4478	0.186	–	–
100 kPa, x2 = 0.4988	0.189	–	–
100 kPa, x2 = 0.5488	0.188	–	–
100 kPa, x2 = 0.5978	0.184	–	–
100 kPa, x2 = 0.6459	0.176	–	–
100 kPa, x2 = 0.6931	0.165	–	–
100 kPa, x2 = 0.7394	0.15	–	–
100 kPa, x2 = 0.7849	0.133	–	–
100 kPa, x2 = 0.8295	0.112	–	–
100 kPa, x2 = 0.9163	0.063	–	–
5000 kPa, x2 = 0.1189	0.076	0.0637	0.0511
5000 kPa, x2 = 0.1765	0.106	–	0.072
5000 kPa, x2 = 0.233	0.132	0.11	0.0886
5000 kPa, x2 = 0.2882	0.152	–	–
5000 kPa, x2 = 0.3424	0.167	0.141	0.113
5000 kPa, x2 = 0.3955	0.178	–	–
5000 kPa, x2 = 0.4475	0.184	0.156	0.126
5000 kPa, x2 = 0.4985	0.188	–	–
5000 kPa, x2 = 0.5485	0.187	0.159	0.128
5000 kPa, x2 = 0.5976	0.182	–	–
5000 kPa, x2 = 0.6457	0.174	0.148	0.12
5000 kPa, x2 = 0.6929	0.166	–	–
5000 kPa, x2 = 0.7392	0.151	0.126	0.103
5000 kPa, x2 = 0.7847	0.133	–	–
5000 kPa, x2 = 0.8293	0.113	0.0938	0.0766
5000 kPa, x2 = 0.8732	0.0885	–	0.0603
5000 kPa, x2 = 0.9162	0.0614	0.0514	0.0425
5000 kPa, x2 = 0.9585	–	0.0264	0.0221
15000 kPa, x2 = 0.1188	0.0714	0.0601	0.0502
15000 kPa, x2 = 0.1763	–	–	0.0712
15000 kPa, x2 = 0.2327	0.129	0.109	0.0873
15000 kPa, x2 = 0.2879	0.15	–	–
15000 kPa, x2 = 0.3421	0.166	0.14	0.111
15000 kPa, x2 = 0.3951	0.178	–	–
15000 kPa, x2 = 0.4471	0.185	0.156	0.124
15000 kPa, x2 = 0.4981	0.188	–	–
15000 kPa, x2 = 0.5482	0.188	0.158	0.125
15000 kPa, x2 = 0.5972	0.184	–	–
15000 kPa, x2 = 0.6454	0.175	0.148	0.117
15000 kPa, x2 = 0.6926	0.164	–	–
15000 kPa, x2 = 0.7389	0.149	0.127	0.1
15000 kPa, x2 = 0.7845	0.131	–	–
15000 kPa, x2 = 0.8291	0.11	0.0941	0.0743
15000 kPa, x2 = 0.873	–	–	0.0577
15000 kPa, x2 = 0.9161	0.0587	0.0511	0.0403
15000 kPa, x2 = 0.9584	–	0.0259	0.0203
25000 kPa, x2 = 0.1187	0.072	0.0642	0.0506
25000 kPa, x2 = 0.1762	–	0.0901	0.0707
25000 kPa, x2 = 0.2325	0.129	0.112	0.0873
25000 kPa, x2 = 0.3418	0.167	0.143	0.112
25000 kPa, x2 = 0.4469	0.185	0.158	0.124
25000 kPa, x2 = 0.5479	0.187	0.16	0.125
25000 kPa, x2 = 0.6451	0.175	0.149	0.117
25000 kPa, x2 = 0.7388	0.149	0.127	0.0996
25000 kPa, x2 = 0.7843	0.132	–	–
25000 kPa, x2 = 0.829	0.111	0.0933	–
25000 kPa, x2 = 0.8729	–	0.0728	–
25000 kPa, x2 = 0.916	0.0593	0.0502	–
25000 kPa, x2 = 0.9584	–	0.0242	–
